# Data published in paper PMC4180945 (Tetrahedron, 2014).
# Key:
# [1] = target: bovine serum albumin (BSA) (Bos taurus, UniProt P02769); experiment: Selectivity binding to arbitrarily selected protein: BSA
# [2] = target: T1, GST-SHD SH2 domain fusion protein (Homo sapiens, UniProt Q96IW2); experiment: Selectivity binding to arbitrarily selected protein: GST-SHD SH2
# T1 sequence (Q96IW2 240-335 limits assumed): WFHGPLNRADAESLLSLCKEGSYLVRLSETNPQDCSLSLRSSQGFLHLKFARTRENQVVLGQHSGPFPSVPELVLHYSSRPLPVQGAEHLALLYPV
# [3] = target: maltose-binding protein-XIAP BIR3 domain fusion (MBP-BIR3) (Homo sapiens, UniProt P98170); experiment: Selectivity binding to arbitrarily selected protein: MBP-BIR3
# [4] = target: T2, protein-tyrosine phosphatase 1B (PTP1B) (Homo sapiens, UniProt P18031); experiment: Selectivity binding to arbitrarily selected protein: PTP1B
# T2 sequence (P18031 1-435): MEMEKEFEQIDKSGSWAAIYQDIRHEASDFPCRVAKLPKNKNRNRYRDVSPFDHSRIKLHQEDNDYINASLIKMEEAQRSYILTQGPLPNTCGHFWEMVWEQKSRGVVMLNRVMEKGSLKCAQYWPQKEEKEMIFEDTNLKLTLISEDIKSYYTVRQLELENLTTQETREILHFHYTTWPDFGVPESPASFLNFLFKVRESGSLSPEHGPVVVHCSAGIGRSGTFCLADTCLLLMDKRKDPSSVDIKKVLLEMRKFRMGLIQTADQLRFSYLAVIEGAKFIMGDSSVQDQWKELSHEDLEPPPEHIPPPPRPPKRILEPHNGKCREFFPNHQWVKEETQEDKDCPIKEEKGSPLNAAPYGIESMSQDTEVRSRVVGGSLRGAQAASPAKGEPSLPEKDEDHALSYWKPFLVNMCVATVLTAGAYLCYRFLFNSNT
# [5] = target: GST-FKBP12 fusion protein (Homo sapiens, UniProt P62942); experiment: Selectivity binding to arbitrarily selected protein: GST-FKBP12
# Sequence of GST-FKBP12 fusion protein (P62942 whole entry, the tested form may be a part): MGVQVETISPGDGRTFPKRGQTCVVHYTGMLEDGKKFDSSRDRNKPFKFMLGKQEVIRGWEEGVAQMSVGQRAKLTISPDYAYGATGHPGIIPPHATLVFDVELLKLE
# Sequence of maltose-binding protein-XIAP BIR3 domain fusion (MBP-BIR3) (P98170 241-356 limits assumed): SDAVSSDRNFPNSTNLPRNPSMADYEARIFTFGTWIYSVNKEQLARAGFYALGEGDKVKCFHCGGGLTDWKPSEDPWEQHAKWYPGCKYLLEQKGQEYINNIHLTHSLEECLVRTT
# Sequence of bovine serum albumin (BSA) (P02769 25-607): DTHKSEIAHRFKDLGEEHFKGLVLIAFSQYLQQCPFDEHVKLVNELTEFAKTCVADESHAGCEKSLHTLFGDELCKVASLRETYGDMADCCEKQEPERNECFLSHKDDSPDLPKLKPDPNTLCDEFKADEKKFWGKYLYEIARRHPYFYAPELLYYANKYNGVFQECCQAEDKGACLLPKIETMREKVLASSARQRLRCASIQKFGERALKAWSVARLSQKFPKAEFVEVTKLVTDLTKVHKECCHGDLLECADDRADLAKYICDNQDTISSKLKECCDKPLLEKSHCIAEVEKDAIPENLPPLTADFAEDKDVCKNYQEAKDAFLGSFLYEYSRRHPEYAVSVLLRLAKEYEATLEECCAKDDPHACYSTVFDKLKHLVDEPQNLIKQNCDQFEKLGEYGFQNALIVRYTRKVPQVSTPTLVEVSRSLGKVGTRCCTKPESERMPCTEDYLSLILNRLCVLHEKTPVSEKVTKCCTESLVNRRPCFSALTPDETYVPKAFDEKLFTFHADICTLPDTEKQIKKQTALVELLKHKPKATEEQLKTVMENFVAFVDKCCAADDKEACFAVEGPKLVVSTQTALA
substance,measurement,setting,value
Trp-phe-Asp-Lys-phe-asn-His-Dap [Peptide 38],Fold higher KD for BSA than that of K-Ras,[1],47-120 fold
same,Fold higher KD for GST-SHD SH2 than that of K-Ras,[2],47-120 fold
same,Fold higher KD for MBP-BIR3 than that of K-Ras,[3],47-120 fold
same,Binding to PTP1B,[4],no binding
same,Binding to GST-FKBP12,[5],no binding
